The subject of this test is antigen challenged sheep. Nature of the test: Sheep Model of Asthma (allergic sheep, antigen challenge). In kind it is in vivo. An excerpt: The allergic sheep model of asthma was employed for the in vivo evaluation of the compounds of the invention as antiasthmatics. These methods have been published previously (see Abraham et al. (1983) Am. Rev. Respir. Dis. 128:839-844; Allegra et al. (1983) J. Appl. Physiol. 55:726-730; Russi et al. (1985) J. Appl. Physiol. 59:1416-1422; Soler et al. ((1989) J. Appl. Physiol. 67:406-413. Each sheep serves as its own control. Body weights for these animals ranged from 20-50 kilograms.
In these studies, 1 mg of Compound 13 was dissolved in 3 mL distilled water, and the total solution delivered as an aerosol 0.5 hours before, 4 hours after, and 24 hours after antigen challenge (total dose=1 mg; n=3).
Twenty-four hours after antigen challenge in both the control and drug trial, the sheep developed airway hyper-responsiveness. Airway hyper-responsiveness is expressed as PC400, the concentration of carbachol that causes a 400% increase in SRL; therefore, a decrease in PC400 indicates hyper-responsiveness. […] The number of breath units fell to 7 for those animals in the control group.

This note sets out measurements from patent publication US6562854B2, “Compositions comprising a substituted benzimidazole useful for treating immunomediated inflammatory disorders” (Axys Pharmaceuticals, Inc., priority 1994, dated 2003).

For the compound `NCc1ccc2[nH]c(Cc3nc4cc(C(=O)NCCc5cccc6ccccc56)ccc4[nH]3)nc2c1` [Compound 13], the “PC400 (airway hyper-responsiveness; concentration of carbachol that causes a 400% increase in SRL)” value (24 hours after antigen challenge, 1 mg aerosol 0.5 hours before, 4 hours after and 24 hours after challenge, n=3, baseline 15, control group fell to 7) is listed as roughly 15 breath units. Further, the airway function result (antigen challenged sheep, aerosol treatment) is on record as “significant improvement in airway function”. The “onset of airway hyper-responsiveness” value (antigen challenged sheep, aerosol, 24 hours after challenge) is given as “block the onset of hyper-responsiveness”.
